Source: patent US4847247A, “Penicillin derivatives as anti-inflammatory and antidegenerative agents” (Merck & Co., Inc., priority 1986, dated 1989)

Molecular target: T1, Human Polymorphonuclear Leukocyte Elastase (Homo sapiens, UniProt P08246)
T1 construct: Crude extract of human polymorphonuclear leukocytes (PMN) containing elastase activity; endogenous in cells; host or cells: human polymorphonuclear leukocytes (crude extract)
T1 sequence (P08246 30-247 limits assumed): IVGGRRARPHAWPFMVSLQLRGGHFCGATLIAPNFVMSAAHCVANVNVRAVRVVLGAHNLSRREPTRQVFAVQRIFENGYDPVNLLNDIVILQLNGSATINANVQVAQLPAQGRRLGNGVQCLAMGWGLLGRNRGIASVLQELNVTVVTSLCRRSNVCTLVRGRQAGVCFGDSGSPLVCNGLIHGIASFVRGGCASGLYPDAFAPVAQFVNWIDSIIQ
Assay: Inhibition of human polymorphonuclear leukocyte (granulocyte) elastase via hydrolysis of Boc-AAPAN
Format: biochemical
Settings: not given
Procedure: Enzyme assay for the Inhibition of Human Polymorphonuclear Leukocyte Elastase Via Hydrolysis of N-t-Boc-alanyl-alanyl-prolylalanine-p-nitroanilide
0.05M TES (N-tris[hydroxymethyl]methyl-2-amino-ethanesulfonic acid) buffer, pH 7.5.
0.2 mM N-t-Boc-alanyl-alanyl-prolyl-alanine-p-nitroanilide (Boc-AAPAN).
To prepare substrate, the solid (m.w. 550) was first dissolved in 10.0 ml DMSO. Buffer at pH 7.5 was then added to a final volume of 100 ml.
Crude extract of human polymorphonuclear leukocytes (PMN) containing elastase activity.
Inhibitors (cephalosporin sulfoxide esters) to be tested dissolved in DMSO just before use.
To 1.0 ml of 0.2 mM Boc-AAPAN in a cuvette, 0.01-0.1 ml of DMSO with or without inhibitor was added. After mixing, a measurement was taken at 410 mμ to detect any spontaneous hydrolysis due to of test compound. 0.05 Milliliters of PMN extract was then added and the αOD/minute at 410 mμ was measured and recorded. Beckman model 35 spectrophotometer was used.
The elastase activity in the crude PMN extract may vary from one preparation to another. A control of each new batch is run, and the volume added in the assay procedure is adjusted according to activity.

| Compound | IC50 [µM] |
| --- | --- |
| CC(OC(=O)NCc1ccccc1)[C@H]1C(=O)N2[C@@H](C(=O)OCc3ccccc3)C(C)(C)S(=O)(=O)[C@H]12 (some centres unmarked) [drawing 28 / 2 / OBZ] | 1.2 |
| CN(C(=O)C(F)(F)F)[C@H]1C(=O)N2[C@@H](C(=O)OCc3ccccc3)C(C)(C)S(=O)(=O)[C@H]12 [6α-CF3 CON(CH3) / 2 / OBZ, Benzyl 6α-(N-methyltrifluoroacetamido)penicillanate-1,1-dioxide] | 0.446 |
| CC1(C)[C@H](C(=O)OCc2ccccc2)N2C(=O)[C@H](COC(=O)NCc3ccccc3)[C@H]2S1(=O)=O [6α-CH2 O(CO)NH(BZ) / 2 / OBZ] | 8.22 |
| CC1(C)[C@H](C(=O)OCc2ccccc2)N2C(=O)[C@H](NC(=O)C(F)(F)F)[C@H]2S1(=O)=O [6α-CF3 CONH / 2 / OBZ, Benzyl 6α-trifluoroacetamidopenicillanate-1,1-dioxide] | 0.345 |
| CC(=O)O[C@H]1C(=O)N2[C@@H](C(=O)OCc3ccccc3)C(C)(C)S(=O)(=O)[C@H]12 [CH3 COO / 2 / OBZ, Benzyl 6α-acetoxypenicillanate-1,1-dioxide] | 0.524 |

Same assay, conditions: crude human PMN extract, 0.2 mM Boc-AAPAN, pH 7.5, 410 mμ, 2 minutes after zero time; read-out: IC50 (dosage for 50% inhibition of the enzyme activity) (converted)

| Compound | IC50 [µM] |
| --- | --- |
| COc1ccc(CNC(=O)[C@@H]2N3C(=O)[C@@H](NC(=O)C(F)(F)F)[C@H]3S(=O)(=O)C2(C)C)cc1 [6β-CF3 (CO)NH / 2 / NHBZ(p-OCH3)] | 0.647 |
| CO[C@@]1(NC(=O)C(F)(F)F)C(=O)N2[C@@H](C(=O)OCc3ccccc3)C(C)(C)S(=O)(=O)[C@@H]21 [β-CF3 CONH / α-CH3 O / 2 / OBZ] | 19.4 |
| CC1(C)S[C@@H]2[C@@H](COC(=O)NCc3ccccc3)C(=O)N2[C@H]1C(=O)OCc1ccccc1 [6α-CH2 O(CO)NH(BZ) / 0 / OBZ] | 11 |
| CC(=O)O[C@H]1C(=O)N2[C@@H]1SC(C)(C)[C@@H]2C(=O)OCc1ccccc1 [CH3 COO / 0 / OBZ] | 28.6 |
| CC(=O)O[C@H]1C(=O)N2[C@@H]1[S+]([O-])C(C)(C)[C@@H]2C(=O)OCc1ccccc1 (some centres unmarked) [CH3 COO / 1 / OBZ] | 13.7 |
| Cc1ccc(S(=O)(=O)C[C@H]2C(=O)N3[C@@H]2[S+]([O-])C(C)(C)[C@@H]3C(=O)OCc2ccccc2)cc1 (stereo partly drawn) [6α-(TS)CH2 / 1 / OBZ] | 8.41 |
| CC(OC(=O)OCc1ccc([N+](=O)[O-])cc1)[C@H]1C(=O)N2[C@@H](C(=O)OCc3ccccc3)C(C)(C)S(=O)(=O)[C@H]12 (some centres unmarked) [drawing 27 / 2 / OBZ] | 0.366 |
| CN(Cc1ccccc1)C(=O)[C@@H]1N2C(=O)[C@@H](NC(=O)C(F)(F)F)[C@H]2SC1(C)C [6β-CF3 (CO)NH / 0 / N(CH3)(BZ), 2,2-diimethyl-6-(trifluoroacetamido)-3-(N-methyl-N-benzylcarbamoyl)penam] | 1.44 |
| CC(OC(=O)N(Cc1ccccc1)C(=O)NCc1ccccc1)[C@H]1C(=O)N2[C@@H](C(=O)OCc3ccccc3)C(C)(C)S(=O)(=O)[C@H]12 (some centres unmarked) [drawing 30 / 2 / OBZ] | 0.0789 |
| COC(=O)[C@@H]1N2C(=O)[C@H](OC)[C@H]2S(=O)(=O)C1(C)C [6α-OCH3 / 2 / OCH3] | 72.1 |
| CN(Cc1ccc(C(=O)OC(C)(C)C)cc1)C(=O)[C@@H]1N2C(=O)[C@H](NC(=O)C(F)(F)F)[C@H]2S(=O)(=O)C1(C)C [6α-CF3 (CO)NH / 2 / N(CH3)BZ(p-COOtBu)] | 1.28 |
| Cc1ccc(S(=O)(=O)N[C@H]2C(=O)N3[C@@H]2SC(C)(C)[C@@H]3C(=O)OCc2ccccc2)cc1 [6α-(TS)NH / 0 / OBZ] | 0.217 |
| CO[C@H]1C(=O)N2[C@@H](C(=O)OCC(F)(F)F)C(C)(C)S(=O)(=O)[C@H]12 [6α-OCH3 / 2 / OCH2 CF3] | 11.6 |
| CC(C)(C)OC(=O)c1ccc(COC(=O)[C@@H]2N3C(=O)[C@@H](NC(=O)C(F)(F)F)[C@H]3S(=O)(=O)C2(C)C)cc1 [6β-CF3 (CO)NH / 2 / OBZ(p-COOtBu)] | 0.935 |
| CC1(C)[C@H](C(=O)OCc2ccc(C(=O)O)cc2)N2C(=O)[C@H](NC(=O)C(F)(F)F)[C@H]2[S+]1[O-] (stereo partly drawn) [6α-CF3 (CO)NH / 1 / OBZ(p-COOH)] | 1.08 |
| CC1(C)S[C@@H]2[C@H](NC(=O)C(F)(F)F)C(=O)N2[C@H]1C(=O)OCc1ccccc1 [6β-CF3 CONH / 0 / OBZ, benzyl 6β-trifluoroacetamidopenicillanate] | 29.8 |

| Compound | IC50 [µM] |
| --- | --- |
| CO[C@H]1C(=O)N2[C@@H](C(=O)Cc3ccccc3)C(C)(C)S(=O)(=O)[C@H]12 [6α-OCH3 / 2 / BZ] | 5.93 |
| Cc1ccc(S(=O)(=O)C[C@H]2C(=O)N3[C@@H](C(=O)OCc4ccccc4)C(C)(C)S(=O)(=O)[C@H]23)cc1 [6α-(TS)CH2 / 2 / OBZ] | 0.61 |
| CC(O)[C@H]1C(=O)N2[C@@H]1SC(C)(C)[C@@H]2C(=O)OCc1ccccc1 (stereo partly drawn) [6α-CH3 CH(OH) / 0 / OBZ] | 59.6 |
| Cc1ccc(S(=O)(=O)OC2C(=O)N3[C@@H]2[S+]([O-])C(C)(C)[C@@H]3C(=O)OCc2ccccc2)cc1 (some centres unmarked) [p-CH3 C6 H4 SO2 O(TsO) / 1 / OBZ] | 4.19 |
| CC[C@@]1(NC(=O)C(F)(F)F)C(=O)N2[C@@H](C(=O)OCc3ccccc3)C(C)(C)[S+]([O-])[C@@H]21 (stereo partly drawn) [β-CF3 CONH / α-C2 H5 / 1 / OBZ] | 11.2 |
| CC1(C)S[C@@H]2[C@H](COC(=O)NCc3ccccc3)C(=O)N2[C@H]1C(=O)OCc1ccccc1 [6β-CH2 O(CO)NH(BZ) / 0 / OBZ] | 33 |
| CO[C@H]1C(=O)N2[C@@H](C(=O)OCc3ccc(C(=O)O)cc3)C(C)(C)S(=O)(=O)[C@H]12 [6α-OCH3 / 2 / OBZ(p-COOH)] | 5.03 |
| CC(C)(C)OC(=O)[C@@H]1CCCN1C(=O)[C@@H]1N2C(=O)[C@H](NC(=O)C(F)(F)F)[C@H]2S(=O)(=O)C1(C)C [6α-CF3 (CO)NH / 2 / drawing 31] | 40.2 |
| Cc1ccc(S(=O)(=O)C[C@H]2C(=O)N3[C@@H](C(=O)OCc4ccccc4)C(C)(C)S(=O)(=O)[C@H]23)cc1 [6α-(TS)CH2 / 2 / OBZ (2nd)] | 4.07 |
| CN(CC(=O)OC(C)(C)C)C(=O)[C@@H]1N2C(=O)[C@H](NC(=O)C(F)(F)F)[C@H]2S(=O)(=O)C1(C)C [6α-CF3 (CO)NH / 2 / N(CH3)(CH2 COOtBu)] | 1.48 |
| CC1(C)[C@H](C(=O)OCc2ccc(C(=O)O)cc2)N2C(=O)[C@H](NC(=O)C(F)(F)F)[C@H]2S1(=O)=O [6α-CF3 (CO)NH / 2 / OBZ(p-COOH)] | 0.0836 |
| CO[C@H]1C(=O)N2[C@@H]1SC(C)(COC(C)=O)[C@@H]2C(=O)OCc1ccccc1 (stereo partly drawn) [α-CH3 O / 0 / OBZ] | 13.2 |
| CC1(C)[C@H](C(=O)OCC(F)(F)F)N2C(=O)[C@H](NC(=O)C(F)(F)F)[C@H]2S1(=O)=O [6α-CF3 CONH / 2 / OCH2 CF3] | 0.235 |
| CN(C(=O)C(F)(F)F)[C@H]1C(=O)N2[C@@H]1SC(C)(C)[C@@H]2C(=O)OCc1ccccc1 [6α-CF3 CON(CH3) / 0 / OBZ, benzyl 6α-(N-methyltrifluoroacetamido)penicillinate] | 7.2 |
| CN(C(=O)C(F)(F)F)[C@H]1C(=O)N2[C@@H]1[S+]([O-])C(C)(C)[C@@H]2C(=O)OCc1ccccc1 (stereo partly drawn) [6α-CF3 CON(CH3) / 1 / OBZ] | 6.94 |

Same assay, conditions: read-out: IC50 (dosage for 50% inhibition of the enzyme activity); crude human PMN extract, 0.2 mM Boc-AAPAN, pH 7.5, 410 mμ, 2 minutes after zero time

| Compound | IC50 [µM] |
| --- | --- |
| CC1(C)S[C@@H]2C(OC(=O)Cc3ccccc3)C(=O)N2[C@H]1C(=O)OCc1ccccc1 (some centres unmarked) [(BZ)COO / 0 / OBZ] | 47 |
| CC1(C)[C@H](C(=O)OCc2ccccc2)N2C(=O)C(OC(=O)Cc3ccccc3)[C@H]2S1(=O)=O (some centres unmarked) [(BZ)COO / 2 / OBZ] | 8.74 |
